# Results: patent US20040009599A1, “Antisense modulation of cellular inhibitor of apoptosis-1 expression” (priority 1998, published 2004)
# Strand notation (5' to 3'): a small letter for the sugar, then the base; units joined by * are phosphorothioate-linked, units joined directly phosphodiester-linked; [ ] holds rarer units or linkages, { } end groups; capitals alone tell only the bases. d = 2'-deoxy (DNA)
# Tested on: human Cellular Inhibitor of Apoptosis-1 RNA
# Experiment: Inhibition of Cellular Inhibitor of Apoptosis-1 mRNA levels by quantitative real-time PCR after oligonucleotide treatment of cells
# Type: cell-based
# Details: phosphorothioate oligodeoxynucleotides; oligonucleotide at final concentration of 150 nM with LIPOFECTIN; real-time PCR; averages from three experiments
# Protocol: Cells were harvested 16 hours after oligonucleotide treatment.
# Poly(A)+ mRNA was isolated according to Miura et al., Clin. Chem., 1996, 42, 1758-1764. Other methods for poly(A)+ mRNA isolation are taught in, for example, Ausubel, F. M. et al., Current Protocols in Molecular Biology, Volume 1, pp. 4.5.1-4.5.3, John Wiley & Sons, Inc., 1993. […] 60 μL lysis buffer (10 mM Tris-HCl, pH 7.6, 1 mM EDTA, 0.5 M NaCl, 0.5% NP-40, 20 mM vanadyl-ribonucleoside complex) was added to each well, the plate was gently agitated and then incubated at room temperature for five minutes. 55 μL of lysate was transferred to Oligo d(T) coated 96-well plates (AGCT Inc., Irvine Calif.). Plates were incubated for 60 minutes at room temperature, washed 3 times with 200 μL of wash buffer (10 mM Tris-HCl pH 7.6, 1 mM EDTA, 0.3 M NaCl). After the final wash, the plate was blotted on paper towels to remove excess wash buffer and then air-dried for 5 minutes. 60 μL of elution buffer (5 mM Tris-HCl pH 7.6), preheated to 70° C. was added to each well, the plate was incubated on a 90° C. hot plate for 5 minutes, and the eluate was then transferred to a fresh 96-well plate.
# Cellular Inhibitor of Apoptosis-1 probes and primers were designed to hybridize to the human Cellular Inhibitor of Apoptosis-1 sequence, using published sequence information (GenBank accession number U37547, incorporated herein as SEQ ID NO:1).
# For Cellular Inhibitor of Apoptosis-1 the PCR primers were: […]
# Target sites are indicated by nucleotide numbers, as given in the sequence source reference (Genbank accession no. U37547), to which the oligonucleotide binds. All compounds in Table 1 are oligodeoxynucleotides with phosphorothioate backbones (internucleoside linkages) throughout. […] Data are averages from three experiments. If present, “N.D.” indicates “no data”.
row,Substance,% Inhibition of Cellular Inhibitor of Apoptosis-1 mRNA levels [%]
1,"ISIS 23332: phosphorothioate oligodeoxynucleotide aaattacactccatagaa, 5′ UTR target site 4 (antisense dA*dA*dA*dT*dT*dA*dC*dA*dC*dT*dC*dC*dA*dT*dA*dG*dA*dA)",0
2,"ISIS 23333: phosphorothioate oligodeoxynucleotide aatcaactctactagcct, 5′ UTR target site 68 (antisense dA*dA*dT*dC*dA*dA*dC*dT*dC*dT*dA*dC*dT*dA*dG*dC*dC*dT)",47
3,"ISIS 23334: phosphorothioate oligodeoxynucleotide ctagtgttatcagaaacg, 5′ UTR target site 139 (antisense dC*dT*dA*dG*dT*dG*dT*dT*dA*dT*dC*dA*dG*dA*dA*dA*dC*dG)",0
4,"ISIS 23335: phosphorothioate oligodeoxynucleotide ttaaggactattcagcta, 5′ UTR target site 216 (antisense dT*dT*dA*dA*dG*dG*dA*dC*dT*dA*dT*dT*dC*dA*dG*dC*dT*dA)",0
5,"ISIS 23336: phosphorothioate oligodeoxynucleotide ttagttagccataaaatt, 5′ UTR target site 287 (antisense dT*dT*dA*dG*dT*dT*dA*dG*dC*dC*dA*dT*dA*dA*dA*dA*dT*dT)",0
6,"ISIS 23337: phosphorothioate oligodeoxynucleotide actttcttcctaactttg, 5′ UTR target site 352 (antisense dA*dC*dT*dT*dT*dC*dT*dT*dC*dC*dT*dA*dA*dC*dT*dT*dT*dG)",0
7,"ISIS 23338: phosphorothioate oligodeoxynucleotide ttggcttaaagttcaaaa, 5′ UTR target site 435 (antisense dT*dT*dG*dG*dC*dT*dT*dA*dA*dA*dG*dT*dT*dC*dA*dA*dA*dA)",0
8,"ISIS 23339: phosphorothioate oligodeoxynucleotide aagtcaatacccacaagc, 5′ UTR target site 497 (antisense dA*dA*dG*dT*dC*dA*dA*dT*dA*dC*dC*dC*dA*dC*dA*dA*dG*dC)",0
9,"ISIS 23340: phosphorothioate oligodeoxynucleotide aaaagctaagttcacaca, 5′ UTR target site 576 (antisense dA*dA*dA*dA*dG*dC*dT*dA*dA*dG*dT*dT*dC*dA*dC*dA*dC*dA)",0
10,"ISIS 23341: phosphorothioate oligodeoxynucleotide aagcactttaacatgaca, 5′ UTR target site 661 (antisense dA*dA*dG*dC*dA*dC*dT*dT*dT*dA*dA*dC*dA*dT*dG*dA*dC*dA)",15
11,"ISIS 23342: phosphorothioate oligodeoxynucleotide tatatgcaggcttctttc, 5′ UTR target site 684 (antisense dT*dA*dT*dA*dT*dG*dC*dA*dG*dG*dC*dT*dT*dC*dT*dT*dT*dC)",23
12,"ISIS 23343: phosphorothioate oligodeoxynucleotide ataacagaccaattactg, 5′ UTR target site 724 (antisense dA*dT*dA*dA*dC*dA*dG*dA*dC*dC*dA*dA*dT*dT*dA*dC*dT*dG)",0
13,"ISIS 23344: phosphorothioate oligodeoxynucleotide tgccttttatttatattt, 5′ UTR target site 764 (antisense dT*dG*dC*dC*dT*dT*dT*dT*dA*dT*dT*dT*dA*dT*dA*dT*dT*dT)",0
14,"ISIS 23345: phosphorothioate oligodeoxynucleotide aggtggatgcacttctga, 5′ UTR target site 858 (antisense dA*dG*dG*dT*dG*dG*dA*dT*dG*dC*dA*dC*dT*dT*dC*dT*dG*dA)",0
15,"ISIS 23346: phosphorothioate oligodeoxynucleotide ggtaacctaagtgctatt, 5′ UTR target site 915 (antisense dG*dG*dT*dA*dA*dC*dC*dT*dA*dA*dG*dT*dG*dC*dT*dA*dT*dT)",0
16,"ISIS 23347: phosphorothioate oligodeoxynucleotide tcaggtaggatgagtatc, 5′ UTR target site 994 (antisense dT*dC*dA*dG*dG*dT*dA*dG*dG*dA*dT*dG*dA*dG*dT*dA*dT*dC)",11
17,"ISIS 23348: phosphorothioate oligodeoxynucleotide tttcttcacatgaactaa, 5′ UTR target site 1097 (antisense dT*dT*dT*dC*dT*dT*dC*dA*dC*dA*dT*dG*dA*dA*dC*dT*dA*dA)",0
18,"ISIS 23349: phosphorothioate oligodeoxynucleotide acctgggaaaagtctttg, Coding target site 1178 (antisense dA*dC*dC*dT*dG*dG*dG*dA*dA*dA*dA*dG*dT*dC*dT*dT*dT*dG)",0
19,"ISIS 23350: phosphorothioate oligodeoxynucleotide caatctgacaagatcgtg, Coding target site 1234 (antisense dC*dA*dA*dT*dC*dT*dG*dA*dC*dA*dA*dG*dA*dT*dC*dG*dT*dG)",0
20,"ISIS 23351: phosphorothioate oligodeoxynucleotide tagagttcacaggaaaag, Coding target site 1285 (antisense dT*dA*dG*dA*dG*dT*dT*dC*dA*dC*dA*dG*dG*dA*dA*dA*dA*dG)",0
21,"ISIS 23352: phosphorothioate oligodeoxynucleotide ccagattctgaataaagc, Coding target site 1491 (antisense dC*dC*dA*dG*dA*dT*dT*dC*dT*dG*dA*dA*dT*dA*dA*dA*dG*dC)",0
22,"ISIS 23353: phosphorothioate oligodeoxynucleotide tttctcattggagacgta, Coding target site 1540 (antisense dT*dT*dT*dC*dT*dC*dA*dT*dT*dG*dG*dA*dG*dA*dC*dG*dT*dA)",32
23,"ISIS 23354: phosphorothioate oligodeoxynucleotide ccaaggtgggagataatg, Coding target site 1572 (antisense dC*dC*dA*dA*dG*dG*dT*dG*dG*dG*dA*dG*dA*dT*dA*dA*dT*dG)",3
24,"ISIS 23355: phosphorothioate oligodeoxynucleotide gagtaagaaccactgaac, Coding target site 1603 (antisense dG*dA*dG*dT*dA*dA*dG*dA*dA*dC*dC*dA*dC*dT*dG*dA*dA*dC)",0
25,"ISIS 23356: phosphorothioate oligodeoxynucleotide tagaattaagagggtttg, Coding target site 1632 (antisense dT*dA*dG*dA*dA*dT*dT*dA*dA*dG*dA*dG*dG*dG*dT*dT*dT*dG)",0
26,"ISIS 23357: phosphorothioate oligodeoxynucleotide tggtaggtaagaaatctg, Coding target site 1717 (antisense dT*dG*dG*dT*dA*dG*dG*dT*dA*dA*dG*dA*dA*dA*dT*dC*dT*dG)",0
27,"ISIS 23358: phosphorothioate oligodeoxynucleotide ttcccagttactgagctt, Coding target site 1835 (antisense dT*dT*dC*dC*dC*dA*dG*dT*dT*dA*dC*dT*dG*dA*dG*dC*dT*dT)",78
28,"ISIS 23359: phosphorothioate oligodeoxynucleotide ctcagatttgaaatgcta, Coding target site 1936 (antisense dC*dT*dC*dA*dG*dA*dT*dT*dT*dG*dA*dA*dA*dT*dG*dC*dT*dA)",0
29,"ISIS 23360: phosphorothioate oligodeoxynucleotide ttcccaacacctcaagcc, Coding target site 2093 (antisense dT*dT*dC*dC*dC*dA*dA*dC*dA*dC*dC*dT*dC*dA*dA*dG*dC*dC)",55

# Same assay, conditions: summary of Table 1; real-time PCR of mRNA levels
row,Substance,inhibition of Cellular Inhibitor of Apoptosis-1 expression
1,"ISIS 23333: phosphorothioate oligodeoxynucleotide aatcaactctactagcct, 5′ UTR target site 68 (antisense dA*dA*dT*dC*dA*dA*dC*dT*dC*dT*dA*dC*dT*dA*dG*dC*dC*dT)",at least 20%
2,"ISIS 23342: phosphorothioate oligodeoxynucleotide tatatgcaggcttctttc, 5′ UTR target site 684 (antisense dT*dA*dT*dA*dT*dG*dC*dA*dG*dG*dC*dT*dT*dC*dT*dT*dT*dC)",at least 20%
3,"ISIS 23353: phosphorothioate oligodeoxynucleotide tttctcattggagacgta, Coding target site 1540 (antisense dT*dT*dT*dC*dT*dC*dA*dT*dT*dG*dG*dA*dG*dA*dC*dG*dT*dA)",at least 20%
4,"ISIS 23358: phosphorothioate oligodeoxynucleotide ttcccagttactgagctt, Coding target site 1835 (antisense dT*dT*dC*dC*dC*dA*dG*dT*dT*dA*dC*dT*dG*dA*dG*dC*dT*dT)",at least 20%
5,"ISIS 23360: phosphorothioate oligodeoxynucleotide ttcccaacacctcaagcc, Coding target site 2093 (antisense dT*dT*dC*dC*dC*dA*dA*dC*dA*dC*dC*dT*dC*dA*dA*dG*dC*dC)",at least 20%
